Assay results as given in US20170166558A1, “O-GLCNAC TRANSFERASE (OGT) INHIBITORS AND USES THEREOF” (President and Fellows of Harvard College, priority 2014, published 2017).
Several values for one entry are separate records, joined by “and”; a condition that tells them apart may be missing. Identical values can stand only once. Values belong to the compound of their own block, whether it stands above or below them.

Assays:
sOGT = target: T1, sOGT (Homo sapiens, UniProt O15294); test: Fluorescence polarization displacement screen with fluorescein-linked UDP-GlcNAc analog; format: binding; conditions: fluorescence displacement in vitro assay; for IC50: read-out: IC50 (sOGT inhibition)
T1 sequence (O15294 1-665 isoform O15294-4): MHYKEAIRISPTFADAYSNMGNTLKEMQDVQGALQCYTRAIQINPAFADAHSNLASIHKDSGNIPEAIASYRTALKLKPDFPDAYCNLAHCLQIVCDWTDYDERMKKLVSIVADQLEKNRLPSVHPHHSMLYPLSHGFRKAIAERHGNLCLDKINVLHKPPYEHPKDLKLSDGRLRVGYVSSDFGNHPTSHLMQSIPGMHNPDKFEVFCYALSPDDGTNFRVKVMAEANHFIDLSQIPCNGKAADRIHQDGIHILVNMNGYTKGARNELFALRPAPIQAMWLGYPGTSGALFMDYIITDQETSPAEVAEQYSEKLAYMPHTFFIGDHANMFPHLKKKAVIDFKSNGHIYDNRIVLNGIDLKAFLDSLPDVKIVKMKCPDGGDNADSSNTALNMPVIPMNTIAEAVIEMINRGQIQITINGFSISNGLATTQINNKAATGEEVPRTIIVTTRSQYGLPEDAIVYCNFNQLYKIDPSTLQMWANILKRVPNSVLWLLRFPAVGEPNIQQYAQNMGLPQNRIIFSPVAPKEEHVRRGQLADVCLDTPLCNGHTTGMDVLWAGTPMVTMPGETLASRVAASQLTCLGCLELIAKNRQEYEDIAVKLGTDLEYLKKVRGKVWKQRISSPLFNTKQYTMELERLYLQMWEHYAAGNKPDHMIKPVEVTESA
Procedure: About 1000 compound library was serially diluted in DMSO from the 5 mg/ml plates fivefold 3 times, such that 4 different concentrations of compounds were prepared. Compound libraries of the 4 concentrations in duplicated were then transferred to the assay plates using a 100 nL pin array, resulting in a final compound concentration of 25 μg/mL or ˜70 μM at the highest of the four concentrations, assuming an average compound MW of 350. Using a Perkin Elmer Envision® microplate reader, the sample was excited at 480 nm in the vertical plane, and simultaneous emission intensity (535 nm) of the vertical and horizontal polarization planes was measured. The polarization was calculated using the following equation:eq4: mP=1000*(V−G*H)/(V+G*H)where: mP=millipolarization units, V=intensity of vertically polarized emission (RFU), H=intensity of horizontally polarized emission (RFU), and G=gain.
Compounds were screened at […] different concentrations in a fluorescence displacement assay (FIG. 13A)^27. Using the known binding constant for the substrate analog, the dose-response data allowed us to estimate binding affinities (Ki values) for the hits. […] Various analogs were prepared based on a modular assembly (as in FIG. 13B), and OGT inhibition was assessed both in vitro and in cells.

CHO cells = test: ApoTox-Glo cell viability, cytotoxicity and apoptosis signaling assay; format: cell-based, Chinese hamster
Procedure: Cell viability, cytotoxicity and apoptosis signaling assays were performed in a 96-well plate using ApoTox-Glo reagent (Promega) according to the manufacturer's instructions.

OGT in CHO cells = test: Immunoblotting of global O-GlcNAcylation (RL2) in CHO cells; format: cell-based, Chinese hamster; conditions: 24 hours, up to 50 μM
Procedure: In vivo inhibition of glycosylation: For all immunoblotting experiments, CHO-K1 (CHO) cells were grown in F12-K media supplemented with 10% FBS and antibiotics at 37° C. in a 5% CO2 incubator. Cells were treated by adding indicated inhibitor in DMSO vehicle (0.5% final vehicle concentration) upon reaching 70% confluence. After indicated treatment length, cells were harvested by aspirating growth media and washing with ice cold 1× PBS. Cells were subsequently lysed in boiling 1% SDS/20 mM HEPES 7.9. After cooling to room temperature, 1 mM PMSF, 10 μM PUGNAC, 10 μM TMG and 1× Complete protease inhibitor cocktail were added to the solution. The mixture was sonicated and then subjected to a 5 minute incubation at 95° C. The samples were centrifuged for 15 minutes at 20,000×g and the supernatant was collected and the total protein was measured by BCA assay (BIO-RAD).
The sample was separated by SDS-PAGE (Bio-Rad 4-15%, Cat: 345-0028), transferred to a nitrocellulose membrane (iBlot, Invitrogen) and probed with the indicated antibody. Tyipcally, membranes were blocked with 4% BSA in 1× TBS+0.04% tween-20 for 1 hour before incubating with antibody (typically diluted 1:1000 in 4% BSA inlx TBS+0.04% tween-20) overnight at 4° C. Membranes were then washed three times with 1× TBS+0.04% tween-20 and incubated with secondary antibody (typically diluted 1:5000 in 4% BSA in 1× TBS+0.04% tween-20) for 1 hour at room temperature. Lastly, membranes were washed 3× with 1× TBS+0.04% tween-20 and imaged with ECL. D283-Med cells were treated as above but grown in F12-K media supplemented with 10% FBS and antibiotics. HEK, HeLa and LNCaP cells were treated as above but grown in RPMI media supplemented with 10% FBS and antibiotics.

ncOGT = target: T2, ncOGT (Homo sapiens, UniProt O15294); test: Radiometric capture assay with Nup62 acceptor and UDP-14C-GlcNAc; format: biochemical
T2 construct: full length human OGT (ncOGT); made in house
T2 sequence (O15294 1-1046): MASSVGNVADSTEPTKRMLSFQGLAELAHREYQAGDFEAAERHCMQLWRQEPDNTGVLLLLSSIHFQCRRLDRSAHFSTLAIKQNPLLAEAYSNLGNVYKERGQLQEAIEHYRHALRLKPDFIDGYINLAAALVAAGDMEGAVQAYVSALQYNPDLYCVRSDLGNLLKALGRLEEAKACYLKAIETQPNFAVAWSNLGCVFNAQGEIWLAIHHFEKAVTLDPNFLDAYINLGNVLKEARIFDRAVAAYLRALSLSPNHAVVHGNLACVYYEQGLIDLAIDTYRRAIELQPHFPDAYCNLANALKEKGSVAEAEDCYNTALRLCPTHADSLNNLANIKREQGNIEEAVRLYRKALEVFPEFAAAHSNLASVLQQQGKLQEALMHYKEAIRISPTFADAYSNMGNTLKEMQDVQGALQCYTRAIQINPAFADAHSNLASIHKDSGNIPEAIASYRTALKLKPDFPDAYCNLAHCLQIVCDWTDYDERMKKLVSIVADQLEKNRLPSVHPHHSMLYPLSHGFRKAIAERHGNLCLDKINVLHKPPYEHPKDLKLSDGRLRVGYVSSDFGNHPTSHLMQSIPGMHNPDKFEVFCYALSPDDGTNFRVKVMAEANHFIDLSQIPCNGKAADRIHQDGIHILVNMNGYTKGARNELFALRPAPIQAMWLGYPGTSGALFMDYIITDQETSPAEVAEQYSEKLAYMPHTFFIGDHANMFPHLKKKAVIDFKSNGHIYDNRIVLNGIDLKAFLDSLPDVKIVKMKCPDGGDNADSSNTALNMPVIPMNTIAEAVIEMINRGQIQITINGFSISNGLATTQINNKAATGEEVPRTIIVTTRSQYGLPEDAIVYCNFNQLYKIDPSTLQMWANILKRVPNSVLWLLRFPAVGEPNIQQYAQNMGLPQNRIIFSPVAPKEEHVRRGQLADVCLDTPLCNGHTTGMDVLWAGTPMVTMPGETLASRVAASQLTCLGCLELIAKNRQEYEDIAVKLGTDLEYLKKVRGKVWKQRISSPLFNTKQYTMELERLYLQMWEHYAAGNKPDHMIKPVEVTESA
Procedure: Radiometric capture assay: Nucleoporin 62 (Nup62) was used as a model substrate. IC50 values of the both inhibitors were determined at range of 0 to 100 μM (eight point, duplicate). OGT antagonists were tested in a reaction mixture containing 18 μM Nup62, 6 μM UDP-^14C-GlcNAc, 100 nM ncOGT, and lx phosphate-buffered saline (1× PBS) (137 mM NaCl, 2.7 mM KCl, 10 mM Na2HPO4, and 1.8 mM KH2PO4, pH 7.4). The Nup62 glycosylation reactions were run for 15 min at 37° C. Reaction mixtures were subsequently quenched by spottinged on Whatman® Protran® nitrocellulose membrane, washed with 1× PBS three times for 15 minutes each. The membranes were air dried and then counted by liquid scintillation counting. The data were analyzed by Microsoft® Excel and Prism 6 (Graphpad®). Robust non-linear variable slope regressions were generated to determine the IC50 and Hill slope values.
In order to evaluate the mode of inhibition of OSMI-1 and UDP-5S-GlcNAc, a series of experiments, as outlined above, were performed with Nup62 as glycosylation substrate. The inhibition test of OSMI-1 was performed by varying the UDP-^14C-GlcNAc concentration from 0 to 0.25 mM while holding concentration of Nup62 constant at 10 μM with four different concentrations of OSMI-1 (0 to 2 μM) in 1× PBS with 100 nM ncOGT and with fixed and saturating concentrations of GST-Nup62 acceptor. The inhibition test of UDP-5S-GlcNAc was performed by varying the UDP-^14C-GlcNAc concentration from 0 to 1 mM while holding concentration of Nup62 constant at 10 μM with five different concentrations of UDP-5S-GlcNAc (0, 1, 5, 10, and 15 μM) in 1× PBS with 100 nM ncOGT. Each reaction was spotted on Whatman® grade P81 ion exchange chromatography paper circles, washed with 1× PBS three times for 15 minutes each. The membranes were air dried and then counted by liquid scintillation counting. Each assay was duplicated in parallel. The data were analyzed by Microsoft® Excel and Prism 6 (Graphpad®). The Michaelis-Menten plots and Ki of both inhibitors calculated under non-linear regression with competitive inhibition mode are shown in FIG. 5.

[1] = target: T3, full length human OGT (ncOGT) (Homo sapiens, UniProt O15294); test: UDP-Glo luminescence-based coupled enzyme assay; format: biochemical; conditions: 40 μM UDP-GlcNAc, 125 μM CKII3K peptide; read-out: IC50 against ncOGT, coupled enzyme assay
T3 construct: made in house
T3 sequence (O15294 1-1046): T2 sequence (O15294 1-1046)
Procedure: UDP-Glo assay: Materials for this assay were obtained from Promega (catalog #V6961), and the experiment was performed largely as outlined by the manufacturer. IC50 values were determined in the range of 0 to 100 μM (eleven concentration points). Assays were performed either in white, 96-well or ½-volume 96-well, plates. This assay was run with 125 μM CKII3K peptide acceptor. Reaction volumes were between 14 (half volume plates) and 20 (normal volume plates) μL. Reactions contained the following components: 300 nM ncOGT, 125 μM CKII3K and 40 μM UDP-GlcNAc in 1× PBS pH 7.4 supplemented with 1 mM THP. Reactions were incubated for one hour at 25° C. and quenched by the addition of an equal volume of UDP-Glo nucleotide detection reagent, prepared and used according to manufacturer guidelines. The quenched reactions were then mixed briefly by shaking at 1800 rpm in a Thermomixer C, and incubated for one hour at room temperature prior to reading luminescence, as per the manufacturers guidelines. Data were analyzed by Microsoft Excel and Prism 6 (Graphpad). When evaluating the effect of sugar donor concentration, this parameter was varied, while all other conditions remained as described above. Each sample in this case was run in duplicate, unless otherwise specified. The 40 μM curve in FIG. 16C has each point in quadruplicate. Similarly, there is an n=9 for each point in the OSMI-1 curve in FIG. 16B.

IC50 (sOGT): 10 µM
Structure (SMILES): O=C([C@H](NS(=O)(=O)c1ccc2[nH]c(=O)ccc2c1)c1ccccc1)N1CCN(c2ccccn2)CC1

IC50 (sOGT): 9 µM
Structure (SMILES): Cc1ccc(N2CCN(C(=O)[C@H](NS(=O)(=O)c3ccc4[nH]c(=O)ccc4c3)c3ccccc3)CC2)cc1

Further lines, the compound ahead of its results:

Structure (SMILES): CC(C)N(Cc1ccccc1)C(=O)[C@H](NS(=O)(=O)c1ccc2[nH]c(=O)ccc2c1)c1ccccc1
IC50 (sOGT): 7 µM

Structure (SMILES): O=C([C@H](NS(=O)(=O)c1ccc2[nH]c(=O)ccc2c1)c1ccccc1)N1CCC(Cc2ccccc2)CC1
Ki (sOGT): 2 µM

Structure (SMILES): O=C([C@@H](Cc1ccccc1)NS(=O)(=O)c1ccc2[nH]c(=O)ccc2c1)N(Cc1ccco1)Cc1cccs1 [PG34, (R)—N-(furan-2-ylmethyl)-2-(2-oxo-1,2-dihydroquinoline-6-sulfonamido)-3-phenyl-N-(thiophen-2-ylmethyl)propanamide]
Effect on cell viability (CHO cells): affected cell viability similarly to OSMI-1
Apoptotic signaling (CHO cells; up to 50 μM): Neither compound displayed an effect on apoptotic signaling
Effect on global O-GlcNAcylation (OGT in CHO cells): no reduction in global O-GlcNAc levels
In vitro inhibitory activity against OGT (ncOGT; radiometric capture assay): poor in vitro inhibitory activity against OGT

Structure (SMILES): CC(=O)N[C@@H]1C(OP(=O)(O)OP(=O)(O)OC[C@H]2O[C@@H](n3ccc(=O)[nH]c3=O)[C@H](O)[C@@H]2O)SC(CO)C(O)[C@@H]1O (some centres unmarked) [UDP-5SGlcNAc, reference compound]
IC50 [1]: 78.8 µM
IC50 (ncOGT; 6 μM UDP-GlcNAc, 18 μM GST-Nup62): 11 µM and 11.1 µM
Ki (ncOGT; non-linear regression, competitive inhibition fit, Nup62 substrate, read-out: Inhibition constant (Ki)): 5 µM
